Assay results from patent publication US20220022513A1 (INTERNATIONAL FLAVORS & FRAGRANCES INC., priority 2018, published 2022).

How the values were obtained:
Format in all cases: in vivo
[1] = Sensory evaluation of sebacic acid at different amounts in sugar water
Protocol: Sugar water (4% sucrose in drinking water) was prepared and used as a base solution.

[2] = Descriptive sensory evaluation (taste modulation) of sebacic acid in different applications
Protocol: Descriptive sensory evaluations were carried out using different amounts of sebacic acid in different applications.

[3] = Sensory evaluation of sebacic acid and traumatic acid in sweetened milk; details: for sweetness and mouthfeel of sweetened milk: 2 ppm (each) in sweetened milk; for Taste Evaluation: 2 ppm (each) in sweetened milk (2% fat milk with 2% sucrose), versus base
Protocol: Sweetened milk (2% fat milk with 2% sucrose) was prepared and used as a base solution (“base”).

Row | Compound | Taste Evaluation ([1]; 0.02 ppm in sugar water (4% sucrose in drinking water)) | Taste Evaluation ([1]; 1000 ppm in sugar water (4% sucrose in drinking water)) | Taste Evaluation ([2]; 7.5 ppm in 3% Sugar-Sweetened Full Fat Milk) | Taste Evaluation ([2]; 7.5 ppm in Mixed Berry Yogurt Smoothie (1% Fat, 9% Sugar, 3% Protein)) | Taste Evaluation ([2]; 15 ppm in Strawberry Flavored Yogurt (5% Sugar, 0.4% Fat, 8.7 Grams Protein)) | Taste Evaluation ([2]; 40 ppm in 3% Sugar + 0.05% Citric Acid Water Solution) | Taste Evaluation ([2]; 40 ppm in Water, compared to same application without sebacic acid) | sweetness and mouthfeel of sweetened milk [3] | Taste Evaluation [3]
1 | O=C(O)CCCCCCCCC(=O)O [Sebacic acid, sebacic acid] | Slight sweet and mouthfeel | Strong sweet and mouthfeel | Increases fatty perception | Cuts sour end, increased | Sweet up front, more | Fatty and oily | Fatty and oily | increased sweetness and mouthfeel | Sweeter and more mouthfeel
2 | O=C(O)/C=C/CCCCCCCCC(=O)O [Traumatic Acid, traumatic acid] | – | – | – | – | – | – | – | increased sweetness and mouthfeel | Sweeter and more mouthfeel
